pIC50: −log10 of the molar value. Bounds are passed on as bounds.

21 compounds from patent US10793580B2, “Substituted pyrazoloazepin-8-ones and their use as phosphodiesterase inhibitors” (LEO Pharma A/S, priority 2016, dated 2020) can be followed below.

The target of one assay is human PDE4D catalytic domain (Homo sapiens (Human), UniProt Q08499). Briefly: PDE4 Assay (TR-FRET, FAM-cAMP cleavage). The assay is classed as biochemical. The conditions noted are these: Table 17, Examples 297-316; read-out: PDE4 IC50 range. The procedure: The human PDE4D catalytic domain (UniProt no. Q08499 [S380-L740]) was incubated with a mixture of non-labelled cAMP (cyclic adenosine monophosphate) and fluorescein amidite (FAM) conjugated cAMP and titrated test or reference Compound. Following brief incubation the enzymatic reaction was stopped by addition of binding buffer containing nanoparticles with immobilized trivalent metal ions capable of binding 1) AMP phospho groups and 2) terbium (Tb) donor fluorophores. Subsequent excitation of the Tb donor triggers time-resolved FRET to adjacent FAM acceptor molecules resulting in light emission. In the presence of a PDE4 inhibitor, AMP generation was reduced resulting in a lower fluorescence signal. The cAMP phosphodiester is not bound by the detection system.
human PDE4D catalytic domain, sequence (Q08499 380-740): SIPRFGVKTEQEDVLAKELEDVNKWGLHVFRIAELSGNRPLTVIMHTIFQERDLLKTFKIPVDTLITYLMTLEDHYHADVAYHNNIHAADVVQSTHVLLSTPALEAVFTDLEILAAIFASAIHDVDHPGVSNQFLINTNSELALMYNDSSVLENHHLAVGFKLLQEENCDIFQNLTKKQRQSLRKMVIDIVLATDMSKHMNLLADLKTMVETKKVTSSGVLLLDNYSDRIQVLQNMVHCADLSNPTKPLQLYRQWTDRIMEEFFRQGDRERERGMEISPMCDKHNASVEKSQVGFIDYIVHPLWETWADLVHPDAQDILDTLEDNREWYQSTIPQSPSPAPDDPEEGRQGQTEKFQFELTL
The results were calculated as the molar concentrations resulting in 50% inhibition of the substrate cleavage compared to controls samples, and are expressed as a range of IC50 (nM).
As for `CCn1nc(CC(C)(C)COC(=O)C2CCN(C(=O)N(C)C)CC2)c2c1C(=O)NCC1(CCOCC1)C2` [Example 316, [3-(1-ethyl-8-oxo-spiro[6,7-dihydro-4H-pyrazolo[3,4-c]azepine-5,4′-tetrahydro-pyran]-3-yl)-2,2-dimethyl-propyl] 1-(dimethylcarbamoyl)-piperidine-4-carboxylate], the pIC50 was over 7.00.

`CCn1nc(CC(C)(C)COC(=O)C2CCN(C(C)=O)CC2)c2c1C(=O)NCC1(CCOCC1)C2` [Example 314, [3-(1-ethyl-8-oxo-spiro[6,7-dihydro-4H-pyrazolo[3,4-c]azepine-5,4′-tetrahydropyran]-3-yl)-2,2-dimethyl-propyl] 1-acetylpiperidine-4-carboxylate]: the pIC50 is over 7.00.

Still in this assay, the particulars now being: human PDE4D catalytic domain (UniProt Q08499 [S380-L740]); 50% inhibition of substrate cleavage; read-out: PDE4 IC50 range.
As to `CCn1nc(CCCOC(=O)c2ccc(OC)cc2C(F)(F)F)c2c1C(=O)NCC1(CCOCC1)C2` [Example 81, 3-(1-ethyl-8-oxo-spiro[6,7-dihydro-4H-pyrazolo[3,4-c]azepine-5,4′-tetrahydro-pyran]-3-yl)propyl 4-methoxy-2-(trifluoromethyl)benzoate], the pIC50 was over 7.00.

In the case of `CCn1nc(CC(C)(C)COC(=O)c2cccc(OC)c2)c2c1C(=O)NCC1(CCOCC1)C2` [Example 196, [3-(1-ethyl-8-oxo-spiro[6,7-dihydro-4H-pyrazolo[3,4-c]azepine-5,4′-tetrahydropyran]-3-yl)-2,2-dimethyl-propyl] 3-methoxybenzoate], the negative-log IC50 (pIC50) was over 7.00.

Turning to `CCn1nc(CCCCOC(=O)c2cnsc2)c2c1C(=O)NCC1(CCOCC1)C2` [Example 268, 4-(1-ethyl-8-oxo-spiro[6,7-dihydro-4H-pyrazolo[3,4-c]azepine-5,4′-tetrahydropyran]-3-yl)butyl isothiazole-4-carboxylate], the pIC50 was over 7.00.

Turning to `CCn1nc(CCCOC(=O)c2ccn(C)n2)c2c1C(=O)NCC1(CCOCC1)C2` [Example 237, 3-(1-ethyl-8-oxo-spiro[6,7-dihydro-4H-pyrazolo[3,4-c]azepine-5,4′-tetrahydropyran]-3-yl)propyl 1-methylpyrazole-3-carboxylate], the pIC50 was over 7.00.

`CCn1nc(C[C@@H](C)COC(=O)[C@H]2CC[C@@H](O)CC2)c2c1C(=O)NCC1(CCOCC1)C2` [Example 147, [(2R)-3-(1-ethyl-8-oxo-spiro[6,7-dihydro-4H-pyrazolo[3,4-c]azepine-5,4′-tetrahydropyran]-3-yl)-2-methyl-propyl] 4-hydroxy-cyclohexanecarboxylate]: the pIC50 was over 7.00.

As to `CCn1nc(CCCOC(=O)c2cccc(S(C)(=O)=O)c2)c2c1C(=O)NCC1(CCOCC1)C2` [Example 63, 3-(1-ethyl-8-oxo-spiro[6,7-dihydro-4H-pyrazolo[3,4-c]azepine-5,4′-tetrahydropyran]-3-yl)propyl 3-methylsulfonylbenzoate], the pIC50 was over 7.00.

As for `CCn1nc(CC(C)(C)COC(=O)c2ccc(C(N)=O)cc2)c2c1C(=O)NCC1(CCOCC1)C2` [Example 218, [3-(1-ethyl-8-oxo-spiro[6,7-dihydro-4H-pyrazolo[3,4-c]azepine-5,4′-tetrahydropyran]-3-yl)-2,2-dimethyl-propyl] 4-carbamoylbenzoate], the pIC50 was over 7.00.

`CCn1nc(CCCOC(=O)c2cc(C)nc(C)c2)c2c1C(=O)NCC1(CCOCC1)C2` [Example 258, 3-(1-ethyl-8-oxo-spiro[6,7-dihydro-4H-pyrazolo[3,4-c]azepine-5,4′-tetrahydro-pyran]-3-yl)propyl 2,6-dimethylpyridine-4-carboxylate]: the pIC50 is over 7.00.

In the case of `CCn1nc(CCCOC(=O)c2cccc(OC)c2F)c2c1C(=O)NCC1(CCOCC1)C2` [Example 39, 3-(1-ethyl-8-oxo-spiro[6,7-dihydro-4H-pyrazolo[3,4-c]azepine-5,4′-tetrahydropyran]-3-yl)propyl 2-fluoro-3-methoxy-benzoate], the pIC50 was over 7.00.

Turning to `CCn1nc(CCCOC(=O)C2CCN(C(C)=O)CC2)c2c1C(=O)NCC1(CCOCC1)C2` [Example 261, 3-(1-ethyl-8-oxo-spiro[6,7-dihydro-4H-pyrazolo[3,4-c]azepine-5,4′-tetrahydropyran]-3-yl)propyl 1-acetylpiperidine-4-carboxylate], the pIC50 is over 7.00.

For `CCn1nc(CCCOC(=O)c2cocn2)c2c1C(=O)NCC1(CCOCC1)C2` [Example 235, 3-(1-ethyl-8-oxo-spiro[6,7-dihydro-4H-pyrazolo[3,4-c]azepine-5,4′-tetrahydro-pyran]-3-yl)propyl oxazole-4-carboxylate], the pIC50 was over 7.00.

For `CCn1nc(CCCOC(=O)C2CCOC2)c2c1C(=O)NCC1(CCOCC1)C2` (stereo not drawn) [Example 236, 3-(1-ethyl-8-oxo-spiro[6,7-dihydro-4H-pyrazolo[3,4-c]azepine-5,4′-tetrahydro-pyran]-3-yl)propyl tetrahydrofuran-3-carboxylate], the pIC50 is over 7.00.

Turning to `CCn1nc(CC(C)(C)COC(=O)c2ccc(S(=O)(=O)N(C)C)cc2)c2c1C(=O)NCC1(CCOCC1)C2` [Example 208, [3-(1-ethyl-8-oxo-spiro-[6,7-dihydro-4H-pyrazolo-[3,4-c]azepine-5,4′-tetra-hydropyran]-3-yl)-2,2-dimethyl-propyl] 4-(di-methylsulfamoyl)benzoate], the pIC50 was over 7.00.

In the case of `CCn1nc(CCCOC(=O)c2ccc(C(=O)N3CCCC3)cc2)c2c1C(=O)NCC1(CCOCC1)C2` [Example 107, 3-(1-ethyl-8-oxo-spiro[6,7-dihydro-4H-pyrazolo[3,4-c]azepine-5,4′-tetrahydro-pyran]-3-yl)propyl 4-(pyrrolidine-1-carbonyl)benzoate], the pIC50 is over 7.00.

Turning to `CCn1nc(CCCOC(=O)c2cccc(C(F)(F)F)c2Cl)c2c1C(=O)NCC1(CCOCC1)C2` [Example 85, 3-(1-ethyl-8-oxo-spiro[6,7-dihydro-4H-pyrazolo[3,4-c]azepine-5,4′-tetrahydropyran]-3-yl)propyl 2-chloro-3-(trifluoromethyl)benzoate], the pIC50 was over 7.00.

With `CCn1nc(CCCOC(=O)c2ccc(C(=O)NC)cc2)c2c1C(=O)NCC1(CCOCC1)C2` [Example 105, 3-(1-ethyl-8-oxo-spiro[6,7-dihydro-4H-pyrazolo[3,4-c]azepine-5,4′-tetrahydro-pyran]-3-yl)propyl 4-(methylcarbamoyl)benzoate], the pIC50 was over 7.00.

As to `CCn1nc(CCCOC(=O)c2ccc(C#N)cc2)c2c1C(=O)NCC1(CCOCC1)C2` [Example 12, 3-(1-ethyl-8-oxo-spiro[6,7-dihydro-4H-pyrazolo[3,4-c]azepine-5,4′-tetrahydropyran]-3-yl) propyl 4-cyanobenzoate], the pIC50 is over 7.00.

Take `CCn1nc(CCCOC(=O)c2ccc(F)cc2)c2c1C(=O)NCC1(CCOCC1)C2` [Example 10, 3-(1-ethyl-8-oxo-spiro[6,7-dihydro-4H-pyrazolo[3,4-c]azepine-5,4′-tetrahydropyran]-3-yl)propyl 4-fluorobenzoate]: the pIC50 is over 7.00.

On to `CCn1nc(CCCOC(=O)c2ccc(C(=O)N3CCN(C)CC3)cc2)c2c1C(=O)NCC1(CCOCC1)C2` [Example 110, 3-(1-ethyl-8-oxo-spiro[6,7-dihydro-4H-pyrazolo[3,4-c]azepine-5,4′-tetrahydropyran]-3-yl)propyl 4-(4-methylpiperazine-1-carbonyl)benzoate], for which the pIC50 is over 7.00.
